Source: patent publication US20110082130A1 (LIGAND PHARMACEUTICALS, INC., priority 2006, published 2011)

target: T1, chimeric human H3 receptor (Homo sapiens, UniProt Q9Y5N1); experiment: Chimeric human H3 receptor GTP binding assay (agonist-stimulated GTP-gamma35S binding, Example 7); type: biochemical; settings: Table I; P2 membranes of Sf9 cells, 1 μM histamine as agonist, Ki from IC50 by Cheng-Prusoff
T1 construct: made in house; host or cells: Sf9 insect cells (baculovirus); P2 membrane preparation
Outline: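 Sf9 membranes co-expressing chimeric human H3 receptor and heterotrimeric G-protein, 35 μg/tube, in pH 7.4 Tris buffer with 10 μM GDP. Test compounds (10^−10–10^−6 M) competed against 1 μM histamine, […] GTP-gamma35S, 60 min at room temperature. Filter-bound radioactivity counted; IC50 converted to Ki by Cheng-Prusoff. Agonism/inverse agonism tested without histamine (EC50).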

T1 sequence (Q9Y5N1 with tags, fused parts or gaps): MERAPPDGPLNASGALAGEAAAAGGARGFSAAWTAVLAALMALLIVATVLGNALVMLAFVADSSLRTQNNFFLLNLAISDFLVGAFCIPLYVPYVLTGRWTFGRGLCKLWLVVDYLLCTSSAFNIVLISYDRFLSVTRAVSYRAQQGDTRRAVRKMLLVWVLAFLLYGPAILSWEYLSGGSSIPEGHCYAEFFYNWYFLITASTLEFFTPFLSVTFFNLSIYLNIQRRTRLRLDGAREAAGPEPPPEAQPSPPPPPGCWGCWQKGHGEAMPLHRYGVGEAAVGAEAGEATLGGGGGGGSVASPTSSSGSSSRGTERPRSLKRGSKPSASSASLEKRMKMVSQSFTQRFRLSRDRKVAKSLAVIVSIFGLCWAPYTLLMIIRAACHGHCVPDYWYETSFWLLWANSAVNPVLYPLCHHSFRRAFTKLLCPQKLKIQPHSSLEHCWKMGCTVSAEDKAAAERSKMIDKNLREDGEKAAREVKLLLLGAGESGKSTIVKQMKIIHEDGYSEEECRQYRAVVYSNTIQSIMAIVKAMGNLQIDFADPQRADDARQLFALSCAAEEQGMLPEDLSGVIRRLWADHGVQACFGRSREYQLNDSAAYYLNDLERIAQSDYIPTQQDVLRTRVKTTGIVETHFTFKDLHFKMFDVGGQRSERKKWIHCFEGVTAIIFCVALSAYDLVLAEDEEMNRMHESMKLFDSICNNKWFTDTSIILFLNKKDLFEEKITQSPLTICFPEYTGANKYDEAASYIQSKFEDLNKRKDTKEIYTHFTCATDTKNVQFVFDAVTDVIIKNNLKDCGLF

Q: Which Ki does the source give for `O=C(CN1CCc2ncccc2C1)N1CCN(C2CCC2)CC1` [Compound 65, 6-[2-(4-cyclobutylpiperazin-1-yl)-2-oxoethyl]-5,6,7,8-tetrahydro-1,6-naphthyridine] here?
A: < 1 µM

Q: How did the Ki turn out when `COc1cc2c(cc1OC)CN(CC(=O)N1CCN(C3CCCC3)CC1)CC2` [Compound 47, 2-[2-(4-cyclopentylpiperazin-1-yl)-2-oxoethyl]-6,7-dimethoxy-1,2,3,4-tetrahydroisoquinoline] was run?
A: < 1 µM

Q: Which Ki does the source give for `CC(C)N1CCN(C(=O)CN2CCc3ccccc3C2c2ccccc2Cl)CC1` (stereo not shown) [Compound 59, 1-(2-chlorophenyl)-2-[2-(4-isopropylpiperazin-1-yl)-2-oxoethyl]-1,2,3,4-tetrahydroisoquinoline] here?
A: < 1 µM

same assay, conditions: Table II "Ki", symbol *; assay of Example 7

Q: `CN(C)CCc1ccc(-c2ccc3c(c2)CCN(CC(=O)N2CCN(C4CCC4)CC2)C3)cc1` [Compound 645, 2-(4-{2-[2-(4-cyclobutylpiperazin-1-yl)-2-oxoethyl]-1,2,3,4-tetrahydroisoquinolin-6-yl}phenyl)-N,N-dimethylethanamine] was tested. Which Ki did it give?
A: < 1 µM

Q: How did the Ki turn out when `CN(C)CCc1cccc(-c2ccc3c(c2)CCN(CC(=O)N2CCN(C4CCC4)CC2)C3)c1` [Compound 644, 2-(3-{2-[2-(4-cyclobutylpiperazin-1-yl)-2-oxoethyl]-1,2,3,4-tetrahydroisoquinolin-6-yl}phenyl)-N,N-dimethylethanamine] was run?
A: < 1 µM

Q: How did the Ki turn out when `COc1ccc(-c2ccc3c(c2)CCN(CC(=O)N2CCN(C4CCC4)CC2)C3)cc1OC` [Compound 524, 2-[2-(4-cyclobutylpiperazin-1-yl)-2-oxoethyl]-6-(3,4-dimethoxyphenyl)-1,2,3,4-tetrahydroisoquinoline] was run?
A: < 1 µM

Q: How did the Ki turn out when `CCC(CC)CNc1ccc2c(n1)CCN(CC(=O)N1CCN(C3CCC3)CC1)C2` [Compound 660, 6-[2-(4-cyclobutylpiperazin-1-yl)-2-oxoethyl]-N-(2-ethylbutyl)-5,6,7,8-tetrahydro-1,6-naphthyridin-2-amine] was run?
A: < 1 µM

Q: With `O=C(CN1CCc2nc(NC3CCCC3)ccc2C1)N1CCN(C2CCC2)CC1` [Compound 656, 6-[2-(4-cyclobutylpiperazin-1-yl)-2-oxoethyl]-N-cyclopentyl-5,6,7,8-tetrahydro-1,6-naphthyridin-2-amine] as the compound, how does the Ki read?
A: < 1 µM

same assay, conditions: Table II; "*" = Ki in assay of Example 7 less than 1 micromolar

Q: Which Ki does the source give for `O=C(CN1CCc2nn(-c3ccc(F)cc3)cc2C1)N1CCN(C2CCC2)CC1` [Compound 236, 5-[2-(4-cyclobutylpiperazin-1-yl)-2-oxoethyl]-2-(4-fluorophenyl)-4,5,6,7-tetrahydro-2H-pyrazolo[4,3-c]pyridine] here?
A: < 1 µM

Q: With `O=C(CN1CCc2cc(Oc3ccc(C(F)(F)F)cn3)ccc2C1)N1CCN(C2CCC2)CC1` [Compound 198, 2-[2-(4-cyclobutylpiperazin-1-yl)-2-oxoethyl]-6-{[5-(trifluoromethyl)pyridin-2-yl]oxy}-1,2,3,4-tetrahydroisoquinoline] as the compound, how does the Ki read?
A: < 1 µM

Q: With `CCC1CCC[C@H]2CN(C(=O)CN3CCc4cc(-c5cncnc5)ccc4C3)CCN12` (stereo in doubt) [Compound 160, 6-ethyl-2-[(6-pyrimidin-5-yl-3,4-dihydroisoquinolin-2(1H)-yl)acetyl]octahydro-2H-pyrido[1,2-a]pyrazine] as the compound, how does the Ki read?
A: < 1 µM

Q: For `CC(C)N1CCN(C(=O)CN2CCc3cc(-c4cccnn4)ccc3C2)CC1` [Compound 164, 2-[2-(4-isopropylpiperazin-1-yl)-2-oxoethyl]-6-pyridazin-3-yl-1,2,3,4-tetrahydroisoquinoline], which Ki is on record?
A: < 1 µM

Q: Which Ki does the source give for `O=C(CN1CCc2cc(-c3cccc(F)c3)nnc2C1)N1CCN(C2CCC2)CC1` [Compound 233, 7-[2-(4-cyclobutylpiperazin-1-yl)-2-oxoethyl]-3-(3-fluorophenyl)-5,6,7,8-tetrahydropyrido[3,4-c]pyridazine] here?
A: < 1 µM

Q: How did the Ki turn out when `O=C(CN1CCc2cc(-c3cccnn3)ccc2C1)N1CCN(C2CCC2)CC1` [Compound 129, 2-[2-(4-cyclobutylpiperazin-1-yl)-2-oxoethyl]-6-pyridazin-3-yl-1,2,3,4-tetrahydroisoquinoline] was run?
A: < 1 µM

Q: With `CCC1CCC[C@H]2CN(C(=O)CN3CCc4cc(Br)ccc4C3)CCN12` (stereo in doubt) [Compound 162, 2-[(6-bromo-3,4-dihydroisoquinolin-2(1H)-yl)acetyl]-6-ethyloctahydro-2H-pyrido[1,2-a]pyrazine] as the compound, how does the Ki read?
A: < 1 µM

Q: For `CC1CCC[C@H]2CN(C(=O)CN3CCc4cc(Br)ccc4C3)CCN12` (stereo in doubt) [Compound 146, 2-[(6-bromo-3,4-dihydroisoquinolin-2(1H)-yl)acetyl]-6-methyloctahydro-2H-pyrido[1,2-a]pyrazine], which Ki is on record?
A: < 1 µM

Q: Which Ki does the source give for `CCCn1cc(-c2ccc3c(c2)CCN(CC(=O)N2CCN(C4CCC4)CC2)C3)ccc1=O` [Compound 281, 5-{2-[2-(4-cyclobutylpiperazin-1-yl)-2-oxoethyl]-1,2,3,4-tetrahydroisoquinolin-6-yl}-1-propylpyridin-2(1H)-one] here?
A: < 1 µM

Q: How did the Ki turn out when `CC(=O)c1ccc(-n2cc3c(n2)CCN(CC(=O)N2CCN(C4CCC4)CC2)C3)cc1` [Compound 94, 1-(4-{5-[2-(4-cyclobutylpiperazin-1-yl)-2-oxoethyl]-4,5,6,7-tetrahydro-2H-pyrazolo[4,3-c]pyridin-2-yl}phenyl)ethanone] was run?
A: < 1 µM

Q: With `O=C(CN1CCc2nc(-c3cncnc3)sc2C1)N1CCCC1CN1CCCC1` (stereo not shown) [Compound 110, 5-{2-oxo-2-[2-(pyrrolidin-1-ylmethyl)pyrrolidin-1-yl]ethyl}-2-pyrimidin-5-yl-4,5,6,7-tetrahydro[1,3] thiazolo [5,4-c]pyridine] as the compound, how does the Ki read?
A: < 1 µM

Q: Which Ki does the source give for `N#Cc1ccc(-n2ncc3c2CCN(CC(=O)N2CCN(C4CCC4)CC2)C3)cc1` [Compound 93, 4-{5-[2-(4-cyclobutylpiperazin-1-yl)-2-oxoethyl]-4,5,6,7-tetrahydro-1H-pyrazolo[4,3-c]pyridin-1-yl}benzonitrile] here?
A: < 1 µM

Q: With `COc1ncc(-n2cc3c(n2)CCN(CC(=O)N2CCN(C4CCC4)CC2)C3)cn1` [Compound 256, 5-[2-(4-cyclobutylpiperazin-1-yl)-2-oxoethyl]-2-(2-methoxypyrimidin-5-yl)-4,5,6,7-tetrahydro-2H-pyrazolo[4,3-c]pyridine] as the compound, how does the Ki read?
A: < 1 µM

Q: For `O=C(NC1CCCC1)c1ccc2c(c1)CCN(CC(=O)N1CCN(C3CCC3)CC1)C2` [Compound 88, 2-[2-(4-cyclobutylpiperazin-1-yl)-2-oxoethyl]-N-cyclopentyl-1,2,3,4-tetrahydroisoquinoline-6-carboxamide], which Ki is on record?
A: < 1 µM

Q: Which Ki does the source give for `CC1CCC[C@H]2CN(C(=O)CN3CCc4nc(-c5cncnc5)ccc4C3)CCN12` (stereo in doubt) [Compound 177, 6-[2-(6-methyloctahydro-2H-pyrido[1,2-a]pyrazin-2-yl)-2-oxoethyl]-2-pyrimidin-5-yl-5,6,7,8-tetrahydro-1,6-naphthyridine] here?
A: < 1 µM

same assay, conditions: Table II; assay of Example 7

Q: With `N#Cc1cnc(-n2cc3c(n2)CCN(CC(=O)N2CCN(C4CCC4)CC2)C3)nc1` [Compound 686, 2-{5-[2-(4-cyclobutylpiperazin-1-yl)-2-oxoethyl]-4,5,6,7-tetrahydro-2H-pyrazolo[4,3-c]pyridin-2-yl}pyrimidine-5-carbonitrile] as the compound, how does the Ki read?
A: < 1 µM

Q: Which Ki does the source give for `O=C(CN1CCc2nn(C3CCOCC3)cc2C1)N1CCN(C2CCC2)CC1` [Compound 685] here?
A: < 1 µM

same assay, conditions: assay of Example 7; "*" in Ki of Table II

Q: How did the Ki turn out when `CS(=O)(=O)c1cccc(-c2ccc3c(c2)CCN(CC(=O)N2CCN(C4CCCC4)CC2)C3)c1` [Compound 394, 2-[2-(4-cyclopentylpiperazin-1-yl)-2-oxoethyl]-6-[3-(methylsulfonyl)phenyl]-1,2,3,4-tetrahydroisoquinoline] was run?
A: < 1 µM

Q: Which Ki does the source give for `COc1ccc(-c2nc3c(s2)CN(CC(=O)N2CCN(C4CCC4)CC2)CC3)cc1C` [Compound 333, 5-[2-(4-cyclobutylpiperazin-1-yl)-2-oxoethyl]-2-(4-methoxy-3-methylphenyl)-4,5,6,7-tetrahydro[1,3]thiazolo [5,4-c]pyridine] here?
A: < 1 µM

Q: Which Ki does the source give for `O=C(CN1CCc2nc(-c3cccc(Cl)c3Cl)sc2C1)N1CCN(C2CCC2)CC1` [Compound 358, 5-[2-(4-cyclobutylpiperazin-1-yl)-2-oxoethyl]-2-(2,3-dichlorophenyl)-4,5,6,7-tetrahydro[1,3]thiazolo [5,4-c]pyridine] here?
A: < 1 µM

Q: `Cc1ccc(-c2nc3c(s2)CN(CC(=O)N2CCN(C4CCC4)CC2)CC3)cc1C` [Compound 308, 5-[2-(4-cyclobutylpiperazin-1-yl)-2-oxoethyl]-2-(3,4-dimethylphenyl)-4,5,6,7-tetrahydro[1,3]thiazolo [5,4-c]pyridine] was tested. Which Ki did it give?
A: < 1 µM

Q: Which Ki does the source give for `O=C(CN1CCc2cc(-c3ccc4c(c3)OCCO4)ccc2C1)N1CCN(C2CCC2)CC1` [Compound 380, 2-[2-(4-cyclobutylpiperazin-1-yl)-2-oxoethyl]-6-(2,3-dihydro-1,4-benzodioxin-6-yl)-1,2,3,4-tetrahydroisoquinoline] here?
A: < 1 µM

Q: `O=C(CN1CCc2nc(-c3cc(F)cc(F)c3)sc2C1)N1CCN(C2CCC2)CC1` [Compound 355, 5-[2-(4-cyclobutylpiperazin-1-yl)-2-oxoethyl]-2-(3,5-difluorophenyl)-4,5,6,7-tetrahydro[1,3]thiazolo [5,4-c]pyridine] was tested. Which Ki did it give?
A: < 1 µM

Q: How did the Ki turn out when `CC(=O)c1cccc(-c2nc3c(s2)CN(CC(=O)N2CCN(C4CCC4)CC2)CC3)c1` [Compound 370, 1-(3-{5-[2-(4-cyclobutylpiperazin-1-yl)-2-oxoethyl]-4,5,6,7-tetrahydro[1,3]thiazolo [5,4-c]pyridin-2-yl}phenyl)ethanone] was run?
A: < 1 µM

Q: For `O=C(CN1CCc2c(cnn2-c2ccc(O)nn2)C1)N1CCN(C2CCC2)CC1` [Compound 291, 6-{5-[2-(4-cyclobutylpiperazin-1-yl)-2-oxoethyl]-4,5,6,7-tetrahydro-1H-pyrazolo[4,3-c]pyridin-1-yl}pyridazin-3-ol], which Ki is on record?
A: < 1 µM

Q: `COc1ccc(-c2ccc3c(c2)CCN(CC(=O)N2CCN(C4CCCC4)CC2)C3)cn1` [Compound 391, 2-[2-(4-cyclopentylpiperazin-1-yl)-2-oxoethyl]-6-(6-methoxypyridin-3-yl)-1,2,3,4-tetrahydroisoquinoline] was tested. Which Ki did it give?
A: < 1 µM
